Columns and labels:
[1] = tested on: IL-1 production in human monocytes and macrophages; assay: Inhibition of IL-1 production in human monocytes and macrophages (silica-stimulated, thymocyte 3H-thymidine assay); type: cell-based; conditions: 0.1 to 100 μg/ml; 100 μg/ml silica, 48 hours; FIG. 2
Procedure: Normal human peripheral blood was heparin-treated and diluted with equal amount of Hank's balanced salt solution (HBSS: Ca^2+ and Mg^2+ free). The diluted blood was put into a centrifuge tube containing therein Ficoll-Hypaque(Sigma, St. Louis, Mo., U.S.A.) layer having a density of 1.077 piled up on Ficoll-Hypaque layer having a density of 1.119, and then centrifuged at 700×g for 30 minutes to obtain monocytes from the layer between Ficoll-Hypaque layer having a density of 1.077 and serum layer, and neutrophils from the layer between Ficoll-Hypaque layer having a density of 1.077 and that having a density of 1.119. The separated cells were washed twice with 4° C. HBSS(Ca^2+ and Mg^2+ free) and suspended in RPMI 1640 medium(Gibco, Grand Island, N.Y., U.S.A.) containing 10% fetal bovine serum(FBS, Hyclone, Logan, Utah, U.S.A.). The suspensions were added to the wells of 24-well incubation plate(Costar, Cambridge, Mass., U.S.A.) and incubated at 37° C. for 2 hours to obtain monocytes, macrophages and neutrophils. […] The activity of IL-1 in the dialyzate was determined in accordance with the method of Gery described in Cellular Immunology, 64, 293-303(1981) as follows. […] When the incubation was completed, the cells were collected on the glass fiber filter and the amount of incorporated ^3 H-thymidine was determined by liquid scintillation counter(Beckman).

[2] = tested on: O2^- production in human neutrophils; assay: Production of O2^- in human neutrophils (PMA-stimulated); type: cell-based
Procedure: Normal human peripheral blood was heparin-treated and diluted with equal amount of Hank's balanced salt solution (HBSS: Ca^2+ and Mg^2+ free). The diluted blood was put into a centrifuge tube containing therein Ficoll-Hypaque(Sigma, St. Louis, Mo., U.S.A.) layer having a density of 1.077 piled up on Ficoll-Hypaque layer having a density of 1.119, and then centrifuged at 700×g for 30 minutes to obtain monocytes from the layer between Ficoll-Hypaque layer having a density of 1.077 and serum layer, and neutrophils from the layer between Ficoll-Hypaque layer having a density of 1.077 and that having a density of 1.119. The separated cells were washed twice with 4° C. HBSS(Ca^2+ and Mg^2+ free) and suspended in RPMI 1640 medium(Gibco, Grand Island, N.Y., U.S.A.) containing 10% fetal bovine serum(FBS, Hyclone, Logan, Utah, U.S.A.). The suspensions were added to the wells of 24-well incubation plate(Costar, Cambridge, Mass., U.S.A.) and incubated at 37° C. for 2 hours to obtain monocytes, macrophages and neutrophils. Inflammatory responses are known as a cascade reaction comprising the secretion of various cytokines, e.g., IL-1, from immune cells stimulated by various stimulants; production of phospholipase A2, lysosomal enzyme, reactive oxygen species, etc. by other immune cells stimulated by said cytokines; and damage of tissues induced by the above products(Pruzanski, W. and […]., Immunol. Today, 12, 143(1991)). The ability of acanthoic acid to block the inflammatory reactions was tested by measuring their inhibitory activity to the production of reactive oxygen species, i.e., H2 O2 and O2^-. For the purpose of measuring the amount of produced O2^-, neutrophils suspended in RPMI 1640 medium in a concentration of 1×10^6 cells/800 μl was added to a part of the wells of 24-well plate and 10 μg/ml of superoxide dismutase(SOD, Sigma) was added to the empty wells. The plate was stored at 37° C. for 2 minutes, and cytochrome C(3 mg/ml, Sigma) was added to the wells in a concentration of 100 μl/well. The cells were treated with 10, 20 and 50 μg/ml of acanthoic acid for an hour and reacted at 37° C. for 20 minutes by introducing 10^-7 PMA as a stimulant. The reaction was terminated by adding 1 mM N-ethylmaleimide(Sigma) to the wells and the culture was centrifuged at 1,600×g for 10 minutes to obtain a supernatant. The change of color of the supernatant caused by the reduction of cytochrome C was measured at 550 nm by using a UV-Visible spectrophotometer (Kontron Instrument, Milano, Italy). The amount of produced O2^- was represented by the concentration of SOD which can suppress the reduction of cytochrome C in 1×10^6 cells for 20 minutes, by employing the extinction coefficient of cytochrome C(E550 nm =1.83×10^4 […] cm^-1).

[3] = tested on: leukocyte migration; conditions: cited from earlier work

C=C[C@@]1(C)CC=C2C(CCC3[C@](C)(C(=O)O)CCC[C@@]23C)C1 (single isomer, unassigned; (-)) [acanthoic acid, (-)-pimara-9(11),15-diene-19-oic acid]
inhibition of production of IL-1 [1]: inhibited by acanthoic acid in a concentration-dependent mode | inhibition at 50 µg/mL ([2]; Neutrophil, 50 μg/ml, PMA): 72% | activity at 10 µg/mL ([2]; Neutrophil, 20 min, PMA + acanthoic acid 10 μg/ml, PMA = 100, read-out: Amount of produced reactive oxygen species, O2^- (% to the control group)): 76.8% | activity at 20 µg/mL ([2]; Neutrophil, 20 min, PMA + acanthoic acid 20 μg/ml, PMA = 100, read-out: Amount of produced reactive oxygen species, O2^- (% to the control group)): 31.6% | activity at 50 µg/mL ([2]; Neutrophil, 20 min, PMA + acanthoic acid 50 μg/ml, PMA = 100, read-out: Amount of produced reactive oxygen species, O2^- (% to the control group)): 28.4% | Amount of produced reactive oxygen species, O2^- ([2]; PMA + acanthoic acid 10 μg/ml): 11.9 nM/20 min. | Amount of produced reactive oxygen species, O2^- ([2]; PMA + acanthoic acid 20 μg/ml): 4.9 nM/20 min. | Amount of produced reactive oxygen species, O2^- ([2]; PMA + acanthoic acid 50 μg/ml): 4.4 nM/20 min. | inhibition of leukocyte migration [3]: inhibit the leukocyte migration
